Measurements as given in patent publication US20230020329A1, “Annelated 9-hydroxy-1,8-dioxo-1,3,4,8-tetrahydro-2H-pyrido[1,2-a]pyrazine-7-carboxamides as HIV integrase inhibitors, methods of preparation and application thereof” (priority 2019, published 2023).
In brackets after ≈: the same amount, converted by molar mass. Where two headings read alike, the source gives them in different places.

Tests used:
HIV [1] = test: EC50 reported in WO 2014/100323; assay type: cell-based; details: A4 vs BIC; A5 vs A6
From the text: Specifically, only two inhibitors—A4 and A5—are known to comprise a pyridin-2-ylmethyl moiety instead of a benzyl moiety [WO 2014/100323].

HIV [2] = details: read-out: EC50 in WO 2014/100323; cited from earlier work
HIV [3] = details: depending on the method of analysis; read-out: Inhibitory activity EC50 (literature); cited from earlier work
[4] = Pharmacokinetics in rat plasma, IV and oral; assay type: in vivo, male Sprague-Dawley rats; details: for Cmax: read-out: Cmax; for Tmax: read-out: Tmax
Experimental: The research was carried out on male Sprague-Dawley rats obtained from Charles River Laboratories (Germany). […] The age of the animals at the time of administration was 8-10 weeks. The animals were pre-catheterized so that all blood samples during the study of each substance could be taken from the same animals. Each substance was tested in 3 animals at each route of administration. The solution of test substances with a concentration of 0.2 mg/ml in 10% DMSO/10% Solutol/80% 0.05M N-methylglucamine was administered to rats intravenously in the tail vein at a dose of 1 mg/kg. Blood samples were collected at 5, 15, 30 min, 1, 2, 4, 8, and 24 hours after administration. Intragastric administration involved gavage using a solution with a concentration of 0.5 mg/ml in 0.5% methylcellulose at a dose of 5 mg/kg. Blood samples were collected at 15, 30 min, 1, 2, 4, 8, and 24 hours after administration. Blood (0.2 ml) was collected in polypropylene tubes containing 20 μl of 5% NaEDTA. Blood plasma was separated by centrifugation at 1500×g for 10 min and stored until testing at a temperature of −80° C. A pure acetonitrile-water (1:1) mixture (5 μl) was added to 45 μl of test samples. The samples were vortexed thoroughly for 10 seconds. Tolbutamide (100 μl) chilled to +4° C. (200 ng/ml in MeCN) was added to the samples and the mixture was vortexed. The samples were precipitated on ice at +4° C. for 15 minutes and then centrifuged at 2700 g for 10 min at +4° C. Supernatants (100 μl each) were transferred to a blank plate for HPLC/MS/MS analysis. The HPLC/MS/MS analysis was performed using an Agilent 1290 Infinity system coupled to an AB Sciex QTrap 6500 mass spectrometer. Pharmacokinetic analysis of plasma concentration vs time data was performed by a model-independent method using the Phoenix™ WinNonlin® 6.3 software (Pharsight Corp.). […]

[5] = Thermodynamic (shake-flask) solubility; assay type: physicochemical; details: for solubility at 24 h: thermodynamic from solid
Experimental: The test compound of general formula 1 or 2 (2 mg) was weighed into a glass vial. The pION universal buffer (0.5 ml) with pH 7.4 or deionized water was added to appropriate vials. The vials were tightly closed with a lid, placed on a rotating shaker, and incubated for 24 hours to balance the solution and the solid phase at the saturation point. Each resulting solution (200 μl) was taken (in duplicate) from the vials, placed in a 96-well MultiScreen Solubility Filter Plate (Millipore), and filtered using vacuum ([…]) into a polypropylene plate with a U-shaped bottom. If necessary, the filtrates were diluted with an appropriate buffer (water). Then, 120 μl of the filtarate (or a diluted filtrate) was transferred to a 96-well plate with a UV-transparent bottom and 60 μl/well of acetonitrile and 20 μl/well of DMSO were added and thoroughly mixed with a multichannel pipette (acetonitrile and DMSO were added to obtain a required composition of calibration standards, as described below). The optical density of the resulting solutions was measured on a multifunction Infinite 200 PRO plate reader in the wavelength range from 240 nm to 400 nm in steps of 10 nm. The value of ODλ for solutions was assessed at a wavelength chosen for plotting a calibration curve.
The concentration of a substance in the solution after the solubility test was evaluated using a calibration curve. A stock solution in DMSO with a concentration of 2 mg/ml was prepared from a separate sample. […] The range of final concentrations of the calibration curve was 0.2; 0.1; 0.05; 0.025; 0.0125; 0.00625, and 0 mg/ml. Calibration solutions were prepared in a 96-well UV plate as follows: 20 μl of a 10-fold stock solution in DMSO, 60 μl of acetonitrile, and 120 μl of the appropriate buffer were added to the well and stirred. The optical density of the resulting solutions was measured on a multifunction Infinite 200 PRO plate reader in the wavelength range from 240 nm to 400 nm with a step of 10 nm. The optimal wavelength typically corresponding to the absorption maximum was chosen, and a linear dependence of OD at a given wavelength on the concentration of the compound was obtained.
The concentration of the compound in the filtrate after the solubility test was calculated according to the formula:
shake-flask solubility=(ODλfiltrate−ODλblank)/(slope×1.67×filtrate dilution)
wherein slope means the slope of the calibration curve; 1.67 is the filtrate acetonitrile+DMSO dilution ratio; filtrate dilution is an additional dilution of the filtrate, if applicable.

[6] = male, Sprague-Dawley, rat plasma, IV 1 mg/kg
[7] = male, Sprague-Dawley, rat plasma, oral 5 mg/kg

O=C(NCc1ncccc1C(F)(F)F)c1cn2c(c(O)c1=O)C(=O)N1[C@@H]3CC[C@@H](C3)O[C@H]1C2 [Compound A4, (2S, 5R, 13aS)-8-hydroxy-7,9-dioxo-N-{[3-(trifluoromethyl)pyridin-2-yl]methyl}-2,3,4,5,7,9,13,13a-octahydro-2,5-methanpyrido[1′, 2′: 4,5]pyrazino[2,1-b][1,3]oxazepine-10-carboxamide]
Decrease in activity relative to the benzyl analogue (times lower) (HIV [1]): 13.3
EC50 (HIV [2]): 33.3 nM

C[C@H]1CO[C@@H]2Cn3cc(C(=O)NCc4ccc(F)cc4F)c(=O)c(O)c3C(=O)N12 [CAB, Cabotegravir, reference compound]
EC50 (HIV [3]): 0.25 to 3 nM
bioavailability ([4]; male, Sprague-Dawley, plasma, rat, oral 5 mg/kg vs IV 1 mg/kg, F=(AUClast PO/5·AUClast IV)·100): 8.8%
AUC(0-inf) [4, 6]: 232 µg·h/mL
AUC(0-t) [4, 6]: 141 µg·h/mL
MRT last [4, 6]: 9.19 h
half-life [4, 6]: 18.3 h
Cmax [4, 6]: 17000 ng/mL
Tmax [4, 6]: 0.08 h
AUC(0-inf) [4, 7]: 158 µg·h/mL
AUC(0-t) [4, 7]: 62.3 µg·h/mL
MRT last [4, 7]: 8.05 h
half-life [4, 7]: 19.1 h
concentration at 8 h ([4]; male, Sprague-Dawley, rat plasma, oral 5 mg/kg, 8 h, read-out: C8 h): 4340 ng/mL
concentration at 24 h ([4]; male, Sprague-Dawley, rat plasma, oral 5 mg/kg, 24 h, read-out: C24 h): 1840 ng/mL
Cmax [4, 7]: 5210 ng/mL
Tmax [4, 7]: 4.67 h
kel ([4]; rat plasma, IV 1 mg/kg): 0.04 h⁻¹
kel ([4]; rat plasma, oral 5 mg/kg): 0.04 h⁻¹
solubility at 24 h ([5]; aqueous buffer, pION universal buffer pH 7.4, 24 h, read-out: Solubility, pH 7.4, value): 5 µg/mL (≈ 12.3 µM)
Solubility, water, value ([5]; deionized water, 24 h): 8 µg/mL (≈ 19.7 µM)
solubility at 24 h ([5]; deionized water, water, read-out: Solubility in water): 8 µg/mL (≈ 19.7 µM)

O=C(NCc1ncc(F)cc1F)c1cn2c(c(O)c1=O)C(=O)N1[C@H]3CC[C@H](C3)[C@@H]1C2 [Compound A5, (1R, 4S, 12aR)-N-[(3,5-difluoropyridin-2-yl)methyl]-7-hydroxy-6,8-dioxo-1,2,3,4,6,8,12,12a-octahydro-1,4-methanodipyrido [1,2-a: 1′, 2′-d]pyrazine-9-carboxamide]
Decrease in activity relative to the benzyl analogue (times lower) (HIV [1]): almost twofold decrease in activity
EC50 (HIV [2]): 17.8 nM

O=C(NCc1c(F)cc(F)cc1F)c1cn2c(c(O)c1=O)C(=O)N1[C@H]3CC[C@H](C3)O[C@@H]1C2 [BIC, Bictegravir]
EC50 (HIV [3]): 1 to 7.5 nM
EC50 (HIV [2]): 2.5 nM
